pEC50, pIC50: −log10 of the molar value. A value given as a limit tells only on which side of the number the result lay.

Experiment [1] has as its system JFH-1 HCV virus (genotype 2a). Put plainly: Genotype 2a infectious virus assay (JFH-1, HCV core ELISA in HPC cells). Type of experiment: cell-based. As to conditions: Hepatitis C virus, 120 h, 5 days. As to the method:
The genotype 2a infectious virus assay measures the ability of a test compound to inhibit HCV replication in cell culture after 5 days of treatment at the time of HCV genotype 2a virus infection of a permissive human hepatoma cell line (HPC cells). The inhibition of HCV replication was measured by quantification of HCV core protein expression by an enzyme-linked immunosorbent assay (ELISA). Briefly, HPC cells were grown in DMEM containing glucose, L-glutamine and sodium pyruvate, 10% FBS, 100 IU/mL penicillin, 100 μg/mL streptomycin, 2 mM GlutaMAX, and non-essential amino acids. GlutaMAX was obtained from Invitrogen, Corp.; all other media reagents were obtained from Mediatech, Inc. For dose-response testing, ninety-six-well plates were seeded with HPC cells at a density of 2.5×10^3 cells/well in a volume of 50 μL, and incubated at 37° C./5% CO2. Three hours after plating, 50 μL of ten 5-fold serial dilutions of compound and 100 μL of genotype 2a virus were added, and cell cultures were incubated at 37° C./5% CO2. […]
The HCV in vitro infection core ELISA assay measures the ability of a test compound to inhibit replication of an infectious HCV (strain JFH-1; genotype 2a) in cell culture. […] The readout of the assay is quantification of HCV core protein by ELISA 5 days post infection with JFH-1 virus and treatment with a test compound. […]
(An ELISA detects its analyte on a solid surface through an enzyme-linked reagent.)

Another experiment addresses T1, CYP3A4 (Homo sapiens, UniProt P08684).
T1 construct: purchased BD Bioscience 459100
Put plainly: In vitro CYP450 inhibition screen, fluorogenic assay, CYP3A4. Type of experiment: in vitro ADME. Particulars: probe substrate 7-Benzyloxy-trifluoromethylcoumarin, average of two independent experiments, read-out: IC50 (μM) or % Inhibition at 20 μM, CYP450 3A4. The method, then:
CYP1A2 (BD Bioscience Cat #459500), CYP2B6 (BD Bioscience cat #459220), and CYP3A4 (BD Bioscience Cat #459100) inhibition fluorogenic assays were performed according to the manufacturer's protocol. Test articles were prepared as 10 mM stock solutions in DMSO.
Data represent the average of two independent experiments. A represents inhibition of 5 to 10%. B represents inhibition of >10% to 20%. C represents inhibition of >20% to 30%. D represents inhibition of >30% to 40%. I represents an IC50 of 5 to 9 μM.

In the next experiment the target is T2, HCV NS3-NS4A protease 2a (Hepatitis C virus genotype 2a, UniProt Q99IB8).
T2 construct: using 2-3 nM HCV NS3-NS4A protease, which was produced according to the method of Taremi et al; made in house
Put plainly: HCV protease assay (HiLyte Fluor TR/QXL 610 FRET peptide), genotype 2a. In kind it is biochemical. Particulars: 2-3 nM protease, 60 min at 30° C., read-out: IC50 Against HS3/4A 2a. As to the method:
Measurement of the inhibitory effect of compounds on HCV protease activity was performed using the HiLyte Fluor™ TR/QXL™ 610 FRET peptide from AnaSpec, Inc. (San Jose, Calif.) under conditions developed in-house using 2-3 nM HCV NS3-NS4A protease, which was produced according to the method of Taremi et al. (Protein Science, 1998, 7, 2143-2149). The compounds were tested at a variety of concentrations in assay buffer containing a final DMSO concentration of 5%. Reactions were allowed to proceed for 60 min at 30° C. and fluorescence measurements were recorded with a PerkinElmer Victor^3 V 1420 Multilabel Counter. The IC50 values were determined from the percent inhibition versus concentration data using a sigmoidal non-linear regression analysis based on four parameters with XLfit 4.1 software.

T1 sequence (P08684 whole entry): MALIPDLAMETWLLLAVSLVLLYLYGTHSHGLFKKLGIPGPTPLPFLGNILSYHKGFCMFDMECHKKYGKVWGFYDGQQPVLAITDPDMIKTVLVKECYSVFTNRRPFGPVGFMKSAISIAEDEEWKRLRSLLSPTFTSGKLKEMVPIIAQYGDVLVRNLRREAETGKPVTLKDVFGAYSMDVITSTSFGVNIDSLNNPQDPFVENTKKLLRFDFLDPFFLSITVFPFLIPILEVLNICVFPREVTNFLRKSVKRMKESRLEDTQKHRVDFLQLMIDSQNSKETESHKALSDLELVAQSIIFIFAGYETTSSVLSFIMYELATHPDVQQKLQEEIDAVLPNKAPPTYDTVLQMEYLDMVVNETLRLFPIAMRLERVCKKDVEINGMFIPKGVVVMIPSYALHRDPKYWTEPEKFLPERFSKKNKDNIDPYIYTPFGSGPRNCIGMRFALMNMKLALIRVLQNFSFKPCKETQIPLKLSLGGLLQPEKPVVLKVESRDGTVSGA
T2 sequence (Q99IB8 1031-1212): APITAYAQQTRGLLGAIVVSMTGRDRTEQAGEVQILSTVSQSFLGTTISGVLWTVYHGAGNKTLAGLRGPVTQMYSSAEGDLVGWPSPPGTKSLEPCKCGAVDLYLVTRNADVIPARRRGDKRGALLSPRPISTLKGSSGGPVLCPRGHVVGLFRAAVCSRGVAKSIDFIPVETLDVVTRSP

For the compound `C#Cc1csc(-c2cc(O[C@H]3CC[C@H]4C(=O)N(C)CCCC/C=C\[C@@H]5C[C@@]5(C(=O)NS(=O)(=O)C5(C)CC5)NC(=O)[C@@H]4C3)c3ccc(OC)c(C)c3n2)n1` [Compound 52, (1aR,3aR,5S,7aR,15aS,Z)-5-(2-(4-ethynylthiazol-2-yl)-7-methoxy-8-methylquinolin-4-yloxy)-9-methyl-N-(1-methylcyclopropylsulfonyl)-3,8-dioxo-1a,2,3,3a,4,5,6,7,7a,8,9,10,11,12,13,15a-hexadecahydro-1H-benzo[c]cyclopropa[g][1,6]diazacyclotetradecine-1a-carboxamide], the negative-log EC50 (pEC50) in experiment [1] is more than 6.00. Moreover, the half-inhibitory concentration (IC50) on CYP3A4 fell in the range of 15 to 20 µM.
As for `COc1ccc2c(O[C@H]3CC[C@H]4C(=O)N(C)CCCC/C=C\[C@@H]5C[C@@]5(C(=O)NS(=O)(=O)C5(C)CC5)NC(=O)[C@@H]4C3)cc(-c3nc(C(F)(F)F)cs3)nc2c1C` [Compound 51], the pIC50 at HCV NS3-NS4A protease 2a was more than 6.00. The pEC50 in experiment [1] is more than 6.00. Moreover, the IC50 on CYP3A4 was 20 to 25 µM.

Broadly, the pEC50 is −log10 of the EC50, conventionally taken in molar units. A low value points to a large EC50. Usually IC50 stands for the concentration that gives 50% inhibition.

The values are drawn from patent US9284307B2, “Macrocyclic serine protease inhibitors” (Idenix Pharmaceuticals LLC, priority 2009, dated 2016).
